Source: patent EP0201732A2, “Beta-2-mimetics of the 4-aminophenylethanolamine type for the prevention of peptic ulcers” (BOEHRINGER INGELHEIM VETMEDICA GMBH, priority 1985, dated 1986)
Counter-ions that a name gives are not always drawn.

Columns and labels:
[1] = Tolerability in the treated calves: side effects, haematology and serum enzymes (random samples); type: in vivo, Kälber
Excerpt: (§1) Beispielsweise wurde die Verbindung 1-(4-Amino-3,5,-dichforphenyl)-2-tertbutyfamina-äthanol- hydrochlorid in einer Tagesdosis von 2 mcg/kg Körpergewicht, verteilt auf 2 Dosen, welche dem Futter beigemischt war, 32 bei Beginn der Behandlung ca. 70 Tage alten und ca. 100 kg schweren Kälbern im Vergleich zu einer gleichgroßen Kontrollgruppe fortgesetzt verabreicht.
(§2) Die verabreichte Substanz ist gut verträglich.

peptische Labmagenulcera [2] = test: Prevention of peptic abomasal ulcers in fattening calves, compound given as feed additive; abomasa dissected after slaughter; type: in vivo, Kälber; details: 2 mcg/kg body weight per day in 2 doses mixed into feed; 32 calves, ca. 70 days old and ca. 100 kg at start; treatment ended 14 days before slaughter; control group showed ulcers and haemorrhagic erosions
Excerpt: as §1
(§3) 14 Tage vor dem Schlachttermin wurde die Behandlung beendet.
Nach der Schlachtung zeigten sich bei der Sektion der Labmägen der Kontrollgruppe Läsionen der Labmagenschleimhaut in folgenden verschiedenen Stadien: • 3 Tiere hatten je ein Ulcus bis zu einem Durchmesser von 20 mm • 4 Tiere hatten mehrere Ulcera mit einem Durchmesser von 2 bis 15 mm
Weitere Tiere wiesen hämorrhagische Erosionen auf den Magenschleimhautfalten auf.

[3] = Acute oral toxicity (LD50); details: mouse, in vivo, Maus, p.o.
Excerpt: as §2

[4] = Feed consumption and final weight of the treated calves against the control group; type: in vivo, Kälber
Excerpt: as §1, §3
Außerdem wies bei einem Futterverbrauch der Versuchsgruppe von 344,3 kg pro Tier bzw. von 343,7 kg pro Tier der Kontrollgruppe die erstere eine um ca. 10 kg höhere Endgewicht pro Tier auf. Bei einem annähernd gleichen Futterverbrauch pro Tier bedeutet dies eine Steigerung der Fleischproduktion von ca. 320 kg in der Versuchsgruppe.

Magensäuresekretion = details: rat; doses higher by a factor of 100 than needed for the broncholytic effect; Arzneimittelforschung 26, 1404-1420 (1976); cited from earlier work
peptische Labmagenulcera [5] = details: dose not given

SMILES: CC(C)(C)NCC(O)c1cc(Cl)c(N)c(Cl)c1 (centres unmarked) [1-(4-Amino-3,5-dichlor-phenyl)-2-tert.butylamino-äthanol-hydrochlorid]
- Nebenwirkungen ([1]; calves, 2 mcg/kg per day in feed): keinerlei Nebenwrikungen
- hämatologische Untersuchung und Enzyme SGOT, CPK, LDH und GLDH ([1]; random samples, test group versus control group): keine signifikanten Unterschiede
- Läsionen der Labmagenschleimhaut (peptische Labmagenulcera [2]): bei keinem Tier der Versuchsgruppe irgendwelche Läsionen der Labmagenschleimhaut feststellbar
- LD50 [3]: 176 mg/kg
- höhere Endgewicht pro Tier ([4]; test group versus control group, 2 mcg/kg per day in feed): ca. 10 kg
- Steigerung der Fleischproduktion ([4]; whole test group (32 calves) at nearly equal feed consumption per animal): ca. 320 kg

SMILES: CC(C)(C)NCC(O)c1cc(Cl)c(N)c(Cl)c1 (centres unmarked) [1-(4-Amino-3,5-dichlor-phenyl)-2-tert.butylamino-äthanol]
- Hemmwirkung auf die Magensäuresekretion (Magensäuresekretion): eine Hemmwirkung auf die Magensäuresekretion

SMILES: CN/C(=N/CCSCc1nc[nH]c1C)NC#N [Cimetidine]
- Behandlungsversuch (peptische Labmagenulcera [5]): erfolglos
